The values below come from patent publication US20130210807A1, “Tricyclic Compounds as Allosteric Modulators of Metabotropic Glutamate Receptors” (priority 2010, published 2013).

The test has as its target T1, human mGluR4 (Homo sapiens, UniProt Q14833).
T1 construct: expressed in transfected cells; host or cells: HEK-293
The test is described as follows: mGluR4 Assay on HEK-Expressing Human mGluR4 (FLIPR Ca2+ fluorescence, PAM activity). Type of test: cell-based. The settings on record: human mGluR4 HEK-293 cells. How it is done: mGluR4 Assay on HEK-Expressing Human mGluR4
Since, as explained above, the compounds of the present invention are positive allosteric modulators of mGluR4 receptors, which activity was assayed by detecting changes in intracellular Ca^+2 ion concentration using a Ca^+2-sensitive fluorescent dye (Fluo4-(AM)) and a fluorometric imaging plate reader (FLIPR, Molecular Devices, Sunnyvale, Calif.) in accordance with the manufacturers instructions.
Accordingly, 24 hours prior to carrying out an analysis, human mGluR4 HEK-293 cells were plated out in black-walled, clear-bottomed, poly-L-ornithine-coated 384-well plates at a density of 25,000 cells/well in a glutamine/glutamate-free DMEM medium containing fetal bovine serum (10%), penicillin (100 units/mL) and streptomycin (100 micrograms/mL) at 37° C. under 5% CO2. On the day of the assay, the medium was aspirated and the cells were loaded with a 3 micro-molar solution of Fluo4-AM (LuBioScience, Lucerne, Switzerland) in 0.03% pluronic acid. After maintaining the plate 1 hour at 37° C. under 5% CO2 the non-incorporated dye was removed by washing the cell plate with the assay buffer and the cells were left in the dark at room temperature for six hours before evaluating. All assays were performed in a pH 7.4 buffered-solution containing 20 mM HEPES, 142 mM NaCl, 6 mM KCl, 1 mM MgSO4, 1 mM CaCl2, 0.125 mM sulfapyrazone, and 1% glucose.
Basal fluorescence was recorded over 10 seconds, then aliquots of various concentrations of a compound of the invention were added to the cells. Changes in fluorescence level were first monitored for 180 seconds in order to detect any agonist activity attributable to the compound being assayed. Then the cells were stimulated for an additional 110 seconds by that concentration of glutamate yielding 25% of the maximal response to glutamate (EC25). Concentration-response curves of compounds of the invention were generated using Prism GraphPad software (Graph Pad Inc., San Diego, USA). Curves generated were fitted to a four-parameter logistic equation allowing the determination of EC50 values:
Y=Bottom+(Top−Bottom)/(1+10^logEC^50-^X)*Hill Slope.
For each sample assayed, at least three independent measurements were performed. EC50 values thus determined are reported for each of the compounds of the invention in the respective Tables 1 to 3 herein above.

[1] abbreviates: Table II, Fluo4-AM/FLIPR, stimulated with glutamate EC25.
Setting [2] is: Table I, Fluo4-AM/FLIPR, stimulated with glutamate EC25.

SMILES strings stand for the structures.

T1 sequence (Q14833 33-912): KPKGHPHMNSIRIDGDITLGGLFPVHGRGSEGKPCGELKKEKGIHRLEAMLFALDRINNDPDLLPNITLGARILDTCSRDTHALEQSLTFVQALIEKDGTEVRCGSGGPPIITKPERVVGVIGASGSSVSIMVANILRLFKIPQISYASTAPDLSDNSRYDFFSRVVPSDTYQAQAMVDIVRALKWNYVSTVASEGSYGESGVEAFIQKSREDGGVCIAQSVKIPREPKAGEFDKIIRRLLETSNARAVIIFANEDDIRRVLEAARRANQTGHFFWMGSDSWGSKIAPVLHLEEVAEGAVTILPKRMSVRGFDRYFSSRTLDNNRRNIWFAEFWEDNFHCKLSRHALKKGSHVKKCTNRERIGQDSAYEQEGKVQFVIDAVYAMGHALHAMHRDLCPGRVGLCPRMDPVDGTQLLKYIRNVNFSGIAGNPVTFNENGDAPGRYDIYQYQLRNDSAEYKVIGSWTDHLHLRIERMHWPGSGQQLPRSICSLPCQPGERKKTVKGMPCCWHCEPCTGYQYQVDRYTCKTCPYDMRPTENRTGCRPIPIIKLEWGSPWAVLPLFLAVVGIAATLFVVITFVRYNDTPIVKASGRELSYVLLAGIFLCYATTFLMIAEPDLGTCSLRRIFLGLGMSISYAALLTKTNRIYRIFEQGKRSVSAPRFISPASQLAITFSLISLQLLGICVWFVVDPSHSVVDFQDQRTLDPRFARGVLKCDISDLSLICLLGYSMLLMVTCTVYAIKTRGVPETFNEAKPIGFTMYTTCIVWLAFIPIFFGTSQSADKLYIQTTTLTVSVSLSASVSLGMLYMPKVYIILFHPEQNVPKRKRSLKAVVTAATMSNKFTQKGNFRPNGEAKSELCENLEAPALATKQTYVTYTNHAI

Turning to `Cc1ccnc(Nc2nc3c(s2)COC(C)c2[nH]ncc2-3)n1` (racemic) [Cmpd 18, N-(4-methylpyrimidin-2-yl)-6-methyl-6,7-dihydro-4H-pyrazolo[4′,3′:5,6]oxepino[4,3-d][1,3]-thiazol-2-amine], the response under setting [1] was half-maximal at 3 nM (EC50). For the compound `Cc1ccnc(Nc2nc3c(s2)C(C)(C)Cc2[nH]ncc2-3)n1` [Cmpd 1, 4,4-dimethyl-N-(4-methylpyrimidin-2-yl)-5,6-dihydro-4H-[1,3]thiazolo[4,5-e]indazol-2-amine], under setting [2], the concentration for a half-maximal effect (EC50) (as a rule, the midpoint of the concentration-response curve) came to 326 nM. This counts as sub-micromolar.

As to `Cc1ccnc(Nc2nc3c(ccc4[nH]ncc43)s2)n1` [Cmpd 2, N-(4-methylpyrimidin-2-yl)-6H-[1,3]thiazolo[4,5-e]indazol-2-amine], under setting [2], the EC50 was 28 nM.

In turn, `c1cnc(Nc2nc3c(ccc4[nH]ncc43)s2)nc1` [Cmpd 3, N-(pyrimidin-2-yl)-6H-[1,3]thiazolo[4,5-e]indazol-2-amine] came in with a half-maximal effective concentration (EC50) under setting [2] of 9 nM. This EC50 is about 3.1-fold lower than that of the compound before.

In the case of `CC1(C)Cc2[nH]ncc2-c2nc(Nc3ncc(F)cn3)sc21` [Cmpd 4, N-(5-fluoropyrimidin-2-yl)-4,4-dimethyl-5,6-dihydro-4H-[1,3]thiazolo[4,5-e]indazol-2-amine], under setting [2], the concentration for a half-maximal effect (EC50) came out at 753 nM.

For the compound `Cc1nc(Nc2nc3c(s2)C(C)(C)Cc2[nH]ncc2-3)ncc1F` [Cmpd 5, N-(5-fluoro-4-methylpyrimidin-2-yl)-4,4-dimethyl-5,6-dihydro-4H-[1,3]thiazolo[4,5-e]indazol-2-amine], the EC50 under setting [2] amounted to 645 nM. Same read-out and setting: the figure for `Brc1cc2sc(Nc3ncccn3)nc2c2cn[nH]c12` [Cmpd 6, 5-bromo-N-(pyrimidin-2-yl)-6H-[1,3]thiazolo[4,5-e]indazol-2-amine] is 1 nM. The same measure, in the same setting: as for `Clc1cc2sc(Nc3ncccn3)nc2c2cn[nH]c12` [Cmpd 7, 5-chloro-N-(pyrimidin-2-yl)-6H-[1,3]thiazolo[4,5-e]indazol-2-amine], the figure is 2 nM. Same read-out and setting: as for `Cc1ccnc(Nc2nc3c(cc(C)c4[nH]ncc43)s2)n1` [Cmpd 8, 5-methyl-N-(4-methylpyrimidin-2-yl)-6H-[1,3]thiazolo[4,5-e]indazol-2-amine], the figure is 129 nM; as for `CC1Cc2sc(Nc3ncccn3)nc2-c2cn[nH]c21` (stereo not drawn) [Cmpd 9, 5-methyl-N-(pyrimidin-2-yl)-5,6-dihydro-4H-[1,3]thiazolo[4,5-e]indazol-2-amine], 2 nM. Turning to `Cc1ccnc(Nc2nc3c(s2)CC(C)c2[nH]ncc2-3)n1` (stereo not drawn) [Cmpd 10, 5-methyl-N-(4-methylpyrimidin-2-yl)-5,6-dihydro-4H-[1,3]thiazolo[4,5-e]indazol-2-amine], the response under setting [2] was half-maximal at 36 nM (EC50). As for `Cc1ccnc(Nc2nc3c(s2)C2(CC2)Cc2[nH]ncc2-3)n1` [Cmpd 11, N-(4-methylpyrimidin-2-yl)-5′,6′-dihydrospiro[cyclopropane-1,4′-[1,3]thiazolo[4,5-e]indazol]-2′-amine], the EC50 under setting [2] is 545 nM.

With `c1cnc(Nc2nc3c(s2)C2(CC2)Cc2[nH]ncc2-3)nc1` [Cmpd 12, N-(pyrimidin-2-yl)-5′-6′-dihydrospiro[cyclopropane-1,4′-[1,3]thiazolo[4,5-e]indazol]-2′-amine], the EC50 under setting [2] turned out to be 35 nM. This EC50 lies about 16-fold lower than the previous one. On the same count and under the same terms, as for `Fc1cnc(Nc2nc3c(s2)C2(CC2)Cc2[nH]ncc2-3)nc1` [Cmpd 13, N-(5-fluoropyrimidin-2-yl)-5′,6′-dihydrospiro[cyclopropane-1,4′-[1,3]thiazolo[4,5-e]indazol]-2′-amine], the figure is 93 nM. Regarding `c1cnc(Nc2nc3c(s2)Cc2[nH]ncc2-3)nc1` [Cmpd 14, N-(pyrimidin-2-yl)-1,7-dihydropyrazolo[3′,4′:4,5]cyclopenta[1,2-d][1,3]thiazol-5-amine], the EC50 under setting [1] stood at 1420 nM.

In turn, `Fc1cnc(Nc2nc3c(s2)COCc2[nH]ncc2-3)nc1` [Cmpd 15, N-(5-fluoropyrimidin-2-yl)-6,7-dihydro-4H-pyrazolo[4′,3′:5,6]oxepino[4,3-d][1,3]thiazol-2-amine] gave an EC50 under setting [1] of 8 nM. The same measure, in the same setting: the figure for `c1cnc(Nc2nc3c(s2)COCc2[nH]ncc2-3)nc1` [Cmpd 16, N-(pyrimidin-2-yl)-6,7-dihydro-4H-pyrazolo[4′,3′:5,6]oxepino[4,3-d][1,3]thiazol-2-amine] is 7 nM. The same measure, in the same setting: as for `Cc1ccnc(Nc2nc3c(s2)COCc2[nH]ncc2-3)n1` [Cmpd 17, N-(4-methylpyrimidin-2-yl)-6,7-dihydro-4H-pyrazolo[4′,3′:5,6]oxepino[4,3-d][1,3]thiazol-2-amine], the figure is 10 nM; as for `COc1ccnc(Nc2nc3c(s2)COCc2[nH]ncc2-3)n1` [Cmpd 19, N-(4-methoxypyrimidin-2-yl)-6,7-dihydro-4H-pyrazolo[4′,3′:5,6]oxepino[4,3-d][1,3]thiazol-2-amine], 28 nM; as for `CCc1ccnc(Nc2nc3c(s2)COC(C)c2[nH]ncc2-3)n1` (stereo not drawn) [Cmpd 20, 6-Methyl-N-[4-(ethyl)pyrimidin-2-yl]-6,7-dihydro-4H-pyrazolo[4′,3′:5,6]oxepino[4,3-d][1,3]thiazol-2-amine], 173 nM.

`Cc1nc(Nc2nc3c(s2)COC(C)c2[nH]ncc2-3)ncc1F` (stereo not drawn) [Cmpd 21, N-(5-Fluoro-4-methylpyrimidin-2-yl)-6-methyl-6,7-dihydro-4H-pyrazolo[4′,3′:5,6]oxepino[4,3-d][1,3]thiazol-2-amine] came in with an EC50 under setting [1] of 27 nM. Compound `Cc1ccnc(Nc2nc3c(s2)C(C)OCc2[nH]ncc2-3)n1` (stereo not drawn) [Cmpd 23, 4-methyl-N-(4-methylpyrimidin-2-yl)-6,7-dihydro-4H-pyrazolo[4′,3′:5,6]oxepino[4,3-d][1,3]thiazol-2-amine] showed a concentration giving a half-maximal response (EC50) under setting [1] of 186 nM. Compared with the last compound, the EC50 is about 6.9-fold higher. The same measure, in the same setting: as for `Cc1ccnc(Nc2nc3c(s2)C(C)OC(C)c2[nH]ncc2-3)n1` (stereo not drawn) [Cmpd 24, 4,6-dimethyl-N-(4-methylpyrimidin-2-yl)-6,7-dihydro-4H-pyrazolo[4′,3′:5,6]oxepino-[4,3-d][1,3]thiazol-2-amine], the figure is 121 nM. Still for that read-out and setting: the figure for `c1cnc(Nc2nc3c(s2)CNCc2[nH]ncc2-3)nc1` [Cmpd 27, N-(pyrimidin-2-yl)-4,5,6,7-tetrahydropyrazolo[3,4-c][1,3]thiazolo[4,5-e]azepin-2-amine] is 994 nM. On the same count and under the same terms, as for `Cc1ccnc(Nc2nc3c(s2)CN(C)Cc2[nH]ncc2-3)n1` [Cmpd 28, 5-methyl-N-(4-methylpyrimidin-2-yl)-4,5,6,7-tetrahydropyrazolo[3,4-c][1,3]thiazolo[4,5-e]azepin-2-aminee], the figure is 2380 nM; as for `Fc1cnc(Nc2nc3c(s2)CCCc2[nH]ncc2-3)nc1` [Cmpd 29, N-(5-fluoropyrimidin-2-yl)-4,5,6,7-tetrahydropyrazolo[3′,4′:6,7]cyclohepta[1,2-d][1,3]thiazol-2-amine], 39 nM. For the compound `Cc1ccnc(Nc2nc3c(s2)CCC(F)(F)c2[nH]ncc2-3)n1` [Cmpd 34, 6,6-difluoro-N-(4-methylpyrimidin-2-yl)-4,5,6,7-tetrahydropyrazolo[3′,4′:6,7]cyclohepta[1,2-d][1,3]thiazol-2-amine], the midpoint of the response under setting [1], the EC50, lay at 56 nM. `Cc1ccnc(Nc2nc3c(s2)CCC(=O)c2[nH]ncc2-3)n1` [Cmpd 36, 2-[(4-methylpyrimidin-2-yl)amino]-4,7-dihydropyrazolo[3′,4′:6,7]cyclohepta[1,2-d][1,3]thiazol-6(5H)-one] returned a half-maximal effective concentration (EC50) under setting [1] of 1500 nM. The compound `Cc1nc(Nc2nc3c(s2)COC(C)c2[nH]ncc2-3)ns1` (stereo not drawn) [Cmpd 38] registered an EC50 (text b34, glutamate EC25) of 70 nM.

`Cc1ccnc(Nc2nc3c(s2)CC(F)Cc2[nH]ncc2-3)n1` (stereo not drawn) [Cmpd 40] returned a 50% effective concentration (EC50) under setting [1] of 20 nM.
